Legend:
Type in all cases: functional, Mus musculus
NIH3T3 [1] = experiment: Cytotoxicity expressed as percent viability of liposome-plasmid DNA complex
NIH3T3 [2] = experiment: Transfection activity of the liposomes derived from compound determined by luciferase assay at 12.5 nmol
NIH3T3 [3] = experiment: Cytotoxicity expressed as percent viability of liposome-plasmid DNA complex at 12.5 nmol
NIH3T3 [4] = experiment: Cytotoxicity expressed as percent viability of liposome-plasmid DNA complex at 100 nmol
NIH3T3 [5] = experiment: Transfection activity of the liposomes derived from compound determined by luciferase assay at 25 nmol
NIH3T3 [6] = experiment: Cytotoxicity expressed as percent viability of liposome-plasmid DNA complex at 50 nmol
NIH3T3 [7] = experiment: Cytotoxicity expressed as percent viability of liposome-plasmid DNA complex at 25 nmol

SMILES | Viability (NIH3T3 [1]) [%] | Transfection activity (NIH3T3 [2]) | Viability (NIH3T3 [3]) [%] | Viability (NIH3T3 [4]) [%] | Transfection activity (NIH3T3 [5]) | Viability (NIH3T3 [6]) [%] | Viability (NIH3T3 [7]) [%]
CC(C)CCC[C@@H](C)C1CCC2C3CC=C4CC(OC(=O)NCCN(C)C)CCC4(C)C3CCC21C (stereo partly drawn) | 95 |  |  |  |  |  | 
C[C@H](CCC(=O)NCCCNCCCCN)C1CCC2C3CCC4CC(OC/C=C/CO[C@@H]5CC[C@]6(C)C(CCC7C6CC[C@]6(C)C7CCC6[C@H](C)CCC(=O)NCCCNCCCCN)C5)CC[C@]4(C)C3CC[C@@]21C (stereo partly drawn) |  | 1000000 RLU (mg of protein)-1 |  |  |  |  | 
C[C@H](CCC(=O)NCCCNCCCCN)C1CCC2C3CCC4CC(OC/C=C/CO[C@H]5CC[C@]6(C)C(CCC7C6CC[C@]6(C)C7CCC6[C@H](C)CCC(=O)NCCCNCCCCN)C5)CC[C@]4(C)C3CC[C@@]21C (stereo partly drawn) |  | 1500000 RLU (mg of protein)-1 | 95 | 5 | 2000000 RLU (mg of protein)-1 | 40 | 75

From ChEMBL document CHEMBL1133836, “Anchoring and bola cationic amphiphiles for nucleotide delivery. Effects of orientation and extension of hydrophobic regions” (2001)
